Entries after “also recorded” stand apart in the source; their conditions may differ.
Tested on: insulinoma cells MIN 6 cultured with L-glucose
Experiment: Screening of substances that have anticancer effect in mice with intraperitoneally transplanted, L-glucose-cultured insulinoma cells MIN6
Type: in vivo, mouse
Procedure: Not only human cancer cells A549 but also mouse insulinoma cells MIN6 can be successfully cultured with the L-glucose medium. Mouse insulinoma cells MIN6 were cultured with the D-glucose medium. At a stage where the cells proliferated sufficiently, the medium was changed to the L-glucose medium. Subsequently, the medium change was performed frequently over 2 to 3 days. After almost all dead cells were confirmed to be removed, half the amount of the medium was changed every other day. The MIN6 cells were passaged once or twice using the L-glucose medium. After the culture for 8 to 11 days, the MIN 6 cells were trypsinized to form a cell suspension, which was transplanted at 5×10^6 cells (100 μL)/mouse subcutaneously into the right thigh of mice or at 1.0×10^5 cells (20 μL)/mouse into the abdominal cavity of mice without using Matrigel. As a control, MIN6 cells cultured with the normal D-glucose medium were also transplanted into mice. Because of rapid growth in the D-glucose medium, MIN6 cells were cultured with the D-glucose medium for 6 to 7 days and then transplanted at the same density as that of L-glucose-cultured cells subcutaneously into the right thigh of mice.
A method of screening substances that have anticancer effect was examined using, as a test substance, 2-deoxy-2-(2-oxo-2H-chromen-7-yl) amino-L-glucose (hereinafter referred to as “CLG”) (Japanese Patent No. 6566348), which is a molecule having a 7-OH-cuoumarin moiety bonded to L-glucose via a nitrogen atom.
On day 0, insulinoma cells MIN 6 cultured with L-glucose were intraperitoneally transplanted into 32 mice (four groups each including 8 mice). On day 1, the following groups were prepared: • 8 mice that were intraperitoneally administered every day until day 4 (over 4 minimum days) with a saline solution of CLG at a concentration of 53 mg/kg expected to be safe (CLG administration group); • 8 mice that were intraperitoneally administered only with a CLG-free saline every day until day 7 (over 7 days) (saline administration group); and • 8 mice that were intraperitoneally administered every day until day 7 (over 7 days) with 5-FU (which is used as a standard treatment for pancreatic cancer in Japan and the Europe and also used for treatment of neuroendocrine tumors such as insulinoma) at a high concentration of 25 mg/kg acceptable for nude mice (5-FU administration group).
All mice were euthanized at month 5 and subjected to pathological autopsy.

Row | Compound | share of mice with normal blood sugar levels and no tumor (8 mice, 53 mg/kg intraperitoneally, day 1 to day 4, month 5) [%] | overall anticancer effect in vivo (administered only for 4 days) | mice that maintained normal blood sugar levels until the final euthanasia, with no tumor on dissection (of the 8 mice, 53 mg/kg intraperitoneally every day, day 1 to day 4, euthanasia at month 5) [mice] | mice with a malignant tumor classifiable as neuroendocrine carcinoma (NEC) in the abdominal cavity (of the 8 mice, pathological examination of whole-body sections) | onset of reduction in blood sugar level compared with the saline administration group (remaining 4 of the 8 mice) | necrosis of the intraperitoneal tumor (the one mouse with a malignant tumor) | pathological finding in individual mice (25 mg/kg intraperitoneally every day, day 1 to day 7, 8 mice) | mice likely to have worsened conditions, dissected on day 10 and each found to have a tumor (25 mg/kg intraperitoneally every day, day 1 to day 7, of 8 mice, day 10) [mice]
1 | 2-deoxy-2-(2-oxo-2H-chromen-7-yl) amino-L-glucose [CLG] | 50 | significant effect in vivo | 4 | one | one week later | at least 90% | – | –
2 | O=c1[nH]cc(F)c(=O)[nH]1 [5-FU, reference compound] | – | – | – | – | – | – | large, highly-atypical, significant liver metastasis with high malignancy; also recorded: invasive cancer in the smooth muscle around the transverse colon | 3
